Test results published in US20140031296A1, “NEW SYNTHETIC PEPTIDES AND THEIR USE” (PERGAMUM AB, priority 2011, published 2014).

Assays:
S. aureus (CCUG 1800) = assay: Minimal microbicidal concentration (MMC99) assay, S. aureus; type: cell-based; conditions: 2 hours; for MMC99 μM in 50% SWF: 50% heat inactivated simulated wound fluid
Method: Antimicrobial Activity was Measured as Bactericidal Effect on S. aureus Using Minimal Microbicidal Concentration, MMC99, Assay)
S. aureus (#1800; CCUG, Gothenburg, Sweden) cultured on blood-agar plates [Columbia agar (Oxoid, Basingstoke, UK) supplemented with 5% defibrinated horse blood (National Veterinary Institute (SVA), Uppsala, Sweden)] were transferred to brain heart infusion broth (3.7% BHI; Difco, BD Diagnostics, Franklin Lakes, N.J., USA) and incubated in a shaker at 250 rpm+37° C. over night. The culture was thereafter be diluted 1:10 in fresh BHI broth and incubated for additional two hours to reach log-phase growth. The bacteria were pelleted and suspended in 1% BHI medium (BHI broth diluted 100 times in ultra-pure water) to a concentration of 10^7 bacteria/ml as estimated by measuring optical density at 600 nm. Peptides were serially diluted by two-fold steps from 160 μM to 1.25 μM in 1% BHI medium. The peptides (100 μl) were thereafter incubated with bacteria (5 μl á 10^7 bact./ml) for 2 hours at +37° C. Drops (5 μl) of the suspension were placed on blood agar plates. The blood agar plates were incubated over night at +37° C. The MMC99 values, i.e. the lowest peptide concentration needed to achieve a 99% reduction of viable bacteria, were recorded (Table 3). The concentration of the bacterial suspension used in the assay was confirmed by viable counts on blood agar plates.
S. aureus (#1800; CCUG, Gothenburg, Sweden) cultured on blood-agar plates [Columbia agar (Oxoid, Basingstoke, UK) supplemented with 5% defibrinated horse blood (National Veterinary Institute (SVA), Uppsala, Sweden)] were transferred to brain heart infusion broth (3.7% BHI; Difco, BD Diagnostics, Franklin Lakes, N.J., USA) and incubated in a shaker at 250 rpm+37° C. over night. The culture was thereafter be diluted 1:10 in fresh BHI broth and incubated for additional two hours to reach log-phase growth. The bacteria were pelleted and suspended in 1% BHI medium (BHI broth diluted 100 times in ultra-pure water) to a final concentration of 10^7 bacteria/ml as estimated by measuring optical density at 600 nm.
Peptides were serially diluted by two-fold steps from 400 μM to 0.78 μM in either 1% BHI medium or in 50% heat inactivated simulated wound fluid [SWF, containing 1 part 0.1% peptone (Oxoid, Basingstoke, UK) in saline and 1 part fetal bovine serum, diluted 2 times in ultra-pure water].
The peptides (100 μl) were thereafter incubated with bacteria (5 μl a 10^7 bact./ml) for 2 hours at +37° C. Drops (5 μl) of the suspension were placed on blood agar plates. The blood agar plates were incubated over night at +37° C. The MMC99 values, i.e. the lowest peptide concentration needed to achieve a 99% reduction of viable bacteria were recorded (Table 6). The concentration of the bacterial suspension used in the assay was confirmed by viable counts on blood agar plates.
The antimicrobial effects of the peptides 232 (SEQ ID NO: 78), and 220 (SEQ ID NO:67) were analysed by MMC99 (minimal microbicidal concentration) assay against S. aureus (CCUG 1800), MRSA (CCUG 41879), P. aeruginosa (ATCC 15442), E. coli (CCUG 31246), S. pyogenes (CCUG 4207), P. acnes (CCUG 1794T), S. epidermidis (ATCC12228), K. pneumoniae (ATCC 13883), A. baumannii (ATCC 19606), and C. albicans (ATCC 64549). The peptides were purchased from Biopeptide Company (San Diego, Calif., USA) and Bachem AG (Bubendorf, Switzerland) and results are presented in Table 8A and 8B respectively.
Peptides were serially diluted in two different assay medium, 1% BHI medium (brain-heart infusion medium) or 50% heat inactivated simulated wound fluid (SWF), and thereafter incubated with the microorganisms for 2 hours. Drops of the suspension were placed on blood agar plates. The MMC99 values, i.e. the lowest peptide concentration needed to achieve a 99% reduction of viable microorganisms, were recorded. As presented in Table 8, all the peptides have the ability to kill microorganisms frequently appearing in infections. […]

[1] = tested on: TNF-α production in LPS stimulated THP-1 cells; assay: Inhibition of TNF-α production in LPS stimulated THP-1 cells (ELISA); type: cell-based, human; conditions: mean relative secretion, basal = 0%; for TNF-α at 40 μM peptide: LPS-stimulated level without peptide = 100%; for TNF-α at 4 μM peptide / TNF-α at 10 μM peptide: stimulated = 100%
Method: (§1) After 6 hours of incubation at +37° C., 5% CO2 and in a humid atmosphere, the cell supernatants were collected, centrifuged and kept frozen in −20° C. until analyzed for TNF-α content by ELISA (R&D Systems, Minneapolis, Minn., USA). The results are presented as mean relative secretion (%), with stimulated TNF-α level without peptide added set to 100% and basal secretion set to 0% (Table 2).
as §1, with “incubation,” for “incubation at +37° C., 5% CO2 and in a humid atmosphere,”, “centrifuged,” for “centrifuged”, “5).” for “2).”

[2] = screen 1, 99% reduction of viable bacteria

Sequence	MMC99 μM in 1% BHI medium (S. aureus (CCUG 1800); [2]) [µM]	TNF-α at 40 μM peptide ([1]; screen 1) [%]	MMC99 μM in 1% BHI medium (S. aureus (CCUG 1800); screen 2) [µM]	MMC99 μM in 50% SWF (S. aureus (CCUG 1800); screen 2) [µM]	TNF-α at 4 μM peptide ([1]; screen 2) [%]	TNF-α at 10 μM peptide ([1]; screen 2) [%]	TNF-α at 40 μM peptide ([1]; screen 2) [%]
QPEATKCFQWQRNMRKVR [Peptide 104]	>160	132					
QSEAEKCFQWQRNMRKVR [Peptide 107]	>160	108					
QSEATKCFQWLRNMRKVR [Peptide 113]	>160	22					
QSEATKLFQWQRNLRKVR [Peptide 115]	>160	119					
QSEATKLFQWQRNMRKVR [Peptide 112]	>160	101					
QSEATKRFQWLRNLRKVL [Peptide 119]	20	10					
QSEATKRFQWLRNLRKVLGP [Peptide 213]			25	200	110.3	125.5	84.4
QSEATKRFQWLRNLRKVLKR [Peptide 211]			6.25	100	100.7	89.8	62.8
QSEATKRFQWLRNLRKVLWW [Peptide 212]			12.5	100	90.9	85.8	25.7
QSERKKRFQWLRNLRKVL [Peptide 206]			12.5	100	96.9	92.9	51.0
QSLAEKLFQWLRNLRKVR [Peptide 117]	2.5	13					
QSLAEKLFQWLRNRRKVR [Peptide 120]	10	49					
QSLAHSLFQWLRNLRKVR [Peptide 218]			6.25	50	81.8	55.7	9.2
QSLARTFKQWARNLRKVL [Peptide 209]			12.5	100	88.0	68.2	23.6
QSLATKCFQWQRNMRKVR [Peptide 111]	20	121					
QSLATKLFQWLRNLRKVR [Peptide 114]	2.5	15					

Sequence	MMC99 μM in 1% BHI medium (S. aureus (CCUG 1800); [2]) [µM]	TNF-α at 40 μM peptide ([1]; screen 1) [%]	MMC99 μM in 1% BHI medium (S. aureus (CCUG 1800); screen 2) [µM]	MMC99 μM in 50% SWF (S. aureus (CCUG 1800); screen 2) [µM]	TNF-α at 4 μM peptide ([1]; screen 2) [%]	TNF-α at 10 μM peptide ([1]; screen 2) [%]	TNF-α at 40 μM peptide ([1]; screen 2) [%]
QSLATKLFQWRRNLRKVR [Peptide 121]	10	35					
QTEADKCFQWQRNMRKVR [Peptide 105]	>160	87					
QTEADKCFQWQRNMRKVR [Peptide 106] (QNEADKCFQWQRNMRKVR)	160	96					
RLWRRLMRKVR [Peptide 238]			12.5	100	83.9	89.2	76.5
RSLAQKLFQWLRNLRKVR [Peptide 219]			6.25	12.5	68.5	44.0	7.3
RWCFLWRRLMRKHRRL [Peptide 240]			12.5	25	78.3	59.9	
RWCKLWRRLMRKVRRL [Peptide 239]			12.5	25	65.6	56.5	
SEAEKCFQWQRNMRKVR [Peptide 110]	>160	102					
SQPEATKCFQWQRNMRKVR [Peptide 101]	>160	116					
TQPDATKCFQWQRNMRKVR [Peptide 103]	>160	135					
WCKLWRRLMRKVRR [Peptide 241]			12.5	25	92.7	57.9	
WCRWLRKMVKAL [Peptide 248]			25	50	87.1	80.2	24.2
WFQWKRRMRKVR [Peptide 129]	10	91					
WFQWQRNMRKVR [Peptide 128]	20	104					
WRRWLRKMVKRL [Peptide 249]			12.5	6.25	91.2	78.0	−0.7
